Experimental data reported in article PMC11762957, “Rescue of Mutant CFTR Channel Activity by Investigational Co-Potentiator Therapy” (Biomedicines, 2025).

What was measured:
Format in all cases: cell-based
p.Arg334Trp-CFTR = target: T1, p.Arg334Trp-CFTR (Homo sapiens, UniProt P13569, R334W); assay: Micro-Ussing chamber measurements, polarized CFBE41o- monolayers expressing p.Arg334Trp-CFTR; conditions: after Fsk 0.128 μM
T1 construct: expressed in transfected cells
Method: CFBE41o^− cells expressing p.Arg334Trp-CFTR were seeded onto collagen IV-coated Snap-well filter inserts (#734-1646, Corning, New York, NJ, USA) to establish polarized monolayers. When the transepithelial electrical resistance of cells was ≥1000 Ω·cm^2, micro-Ussing chambers were mounted to measure transepithelial voltage (Vte) and transepithelial resistance (Rte), as noted before. Briefly, after the equilibration period, baseline values were recorded and compounds were added sequentially: Fsk (0.128 μM), test compound(s), and Inh-172 (30 μM). Recorded Vte and Rte were used to calculate the equivalent short-circuit current (Isceq) using Ohm’s law: Isc = Vte/Rte.
Next, we validated the data obtained by the HS-YFP assay by measuring short-circuit currents in the polarized monolayers of CFBE41o^− cells expressing p.Arg334Trp-CFTR to assess the alterations in the CFTR-mediated Cl^− current. Upon the activation of the cAMP-dependent CFTR-mediated Cl^− transport by Fsk, there was a small lumen-negative response, indicating the residual function of p.Arg334Trp-CFTR (Figure 3A–F).

p.Gly551Asp-CFTR = target: T2, p.Gly551Asp-CFTR (Homo sapiens, UniProt P13569, G551D); assay: HS-YFP assay, CFBE41o- cells transiently transfected with p.Gly551Asp-CFTR; conditions: LSO-24 5 μM, LSO-150 3 μM, VX-770 1 μM, ABBV-3067 10 μM, Fsk 5 μM
T2 construct: expressed in transfected cells; host or cells: CFBE41o- cells stably expressing HS-YFP, transient transfection of pcDNA5-CFTR
Method: (§1) Site-directed mutagenesis was performed using KOD HOT start DNA polymerase (#71086-3, Sigma-Aldrich, St. Louis, MO, USA), according to manufacturer’s instructions, to insert variants under study (c.613C>T or p.Pro205Ser; c.1645A>C or p.Ser549Arg; c.1647T>G or p.Ser549Arg; c.1652G>A or p.Gly551Asp; c.2834C>T or p.Ser945Leu; and c.4046G>A or p.Gly1349Asp) into CFTR cDNA cloned in the pcDNA5 expression vector. After confirmation by Sanger sequencing, CFBE41o^− cells expressing HS-YFP seeded onto 96-well plates were transfected with 0.1 µg per well of the indicated plasmid. Lipofectamine 3000 (#L3000015, ThermoFischer Scientific, Waltham, MA, USA) was used as the transfection agent diluted in Opti-MEM reduced serum medium (#31985070, ThermoFischer Scientific, Waltham, MA, USA) according to manufacturer’s instructions.
(§2) CFTR activity was determined by the HS-YFP microfluorimetric assay (described in detail in previous studies) using CFBE41o^− cells expressing HS-YFP together with stably expressed p.Arg334Trp-CFTR or transiently transfected with CFTR cDNA (variants p.Pro205Ser, p.Ser549Arg, p.Gly551Asp, p.Ser945Leu, and p.Gly1349Asp) cloned into pcDNA5. […] Thereafter, cells were transferred to a microplate reader (Tecan Infinite 200 Pro) equipped with high-quality excitation (485 ± 20 nm) and emission (535 ± 25 nm) filters for YFP. Each reading consisted of a continuous 14 s fluorescence recording with 2 s before and 12 s after injection of 165 μL of an iodide-containing solution (PBS with Cl^− replaced by I^−; final I^− concentration: 100 mM). Data were normalized to the initial background-subtracted fluorescence. […]
(§3) As CFTR variants with similar defect(s) may respond differently to the same treatment(s), we assessed whether LSO-24 or its derivative LSO-150, alone or in combination(s), could rescue CFTR activity for other variants with gating/conductance defects. […] After 24 h, the cells were acutely stimulated with Fsk plus test compound(s), and the cell fluorescence was recorded before and after the addition of an I^−-containing solution. […]

p.Ser945Leu-CFTR = target: T3, p.Ser945Leu-CFTR (Homo sapiens, UniProt P13569, S945L); assay: HS-YFP assay, CFBE41o- cells transiently transfected with p.Ser945Leu-CFTR; conditions: LSO-24 5 μM, LSO-150 3 μM, Fsk 5 μM
T3 construct: expressed in transfected cells; host or cells: CFBE41o- cells stably expressing HS-YFP, transient transfection of pcDNA5-CFTR
Method: Site-directed mutagenesis was performed using KOD HOT start DNA polymerase (#71086-3, Sigma-Aldrich, St. Louis, MO, USA), according to manufacturer’s instructions, to insert variants under study (c.613C>T or p.Pro205Ser; c.1645A>C or p.Ser549Arg; c.1647T>G or p.Ser549Arg; c.1652G>A or p.Gly551Asp; c.2834C>T or p.Ser945Leu; and c.4046G>A or p.Gly1349Asp) into CFTR cDNA cloned in the pcDNA5 expression vector. After confirmation by Sanger sequencing, CFBE41o^− cells expressing HS-YFP seeded onto 96-well plates were transfected with 0.1 µg per well of the indicated plasmid. […]
as §2

p.Gly1349Asp-CFTR = target: T4, p.Gly1349Asp-CFTR (Homo sapiens, UniProt P13569, G1349D); assay: HS-YFP assay, CFBE41o- cells transiently transfected with p.Gly1349Asp-CFTR; conditions: Fsk 5 μM
T4 construct: expressed in transfected cells; host or cells: CFBE41o- cells stably expressing HS-YFP, transient transfection of pcDNA5-CFTR
Method: as §1
CFTR activity was determined by the HS-YFP microfluorimetric assay (described in detail in previous studies) using CFBE41o^− cells expressing HS-YFP together with stably expressed p.Arg334Trp-CFTR or transiently transfected with CFTR cDNA (variants p.Pro205Ser, p.Ser549Arg, p.Gly551Asp, p.Ser945Leu, and p.Gly1349Asp) cloned into pcDNA5. Briefly, cells were washed with phosphate-buffered saline (PBS; in mM: 137 NaCl, 2.7 KCl, 8.1 Na2HPO4, 1.5 KH2PO4, 1 CaCl2, and 0.5 MgCl2) and then incubated for 30 min at 37 °C with 60 μL of PBS plus Fsk (5 μM) and test compound(s) to stimulate CFTR channels. DMSO (vehicle) and VX-770 (1 μM) were used as negative and positive controls, respectively. All conditions were performed in triplicate on each plate. Thereafter, cells were transferred to a microplate reader (Tecan Infinite 200 Pro) equipped with high-quality excitation (485 ± 20 nm) and emission (535 ± 25 nm) filters for YFP. Each reading consisted of a continuous 14 s fluorescence recording with 2 s before and 12 s after injection of 165 μL of an iodide-containing solution (PBS with Cl^− replaced by I^−; final I^− concentration: 100 mM). Data were normalized to the initial background-subtracted fluorescence. To determine the I^− influx rate, the final 11 s of the data for each well were fitted with an exponential function to extrapolate the initial slope (dF/dt).
as §3

T4 sequence (P13569 whole entry G1349D): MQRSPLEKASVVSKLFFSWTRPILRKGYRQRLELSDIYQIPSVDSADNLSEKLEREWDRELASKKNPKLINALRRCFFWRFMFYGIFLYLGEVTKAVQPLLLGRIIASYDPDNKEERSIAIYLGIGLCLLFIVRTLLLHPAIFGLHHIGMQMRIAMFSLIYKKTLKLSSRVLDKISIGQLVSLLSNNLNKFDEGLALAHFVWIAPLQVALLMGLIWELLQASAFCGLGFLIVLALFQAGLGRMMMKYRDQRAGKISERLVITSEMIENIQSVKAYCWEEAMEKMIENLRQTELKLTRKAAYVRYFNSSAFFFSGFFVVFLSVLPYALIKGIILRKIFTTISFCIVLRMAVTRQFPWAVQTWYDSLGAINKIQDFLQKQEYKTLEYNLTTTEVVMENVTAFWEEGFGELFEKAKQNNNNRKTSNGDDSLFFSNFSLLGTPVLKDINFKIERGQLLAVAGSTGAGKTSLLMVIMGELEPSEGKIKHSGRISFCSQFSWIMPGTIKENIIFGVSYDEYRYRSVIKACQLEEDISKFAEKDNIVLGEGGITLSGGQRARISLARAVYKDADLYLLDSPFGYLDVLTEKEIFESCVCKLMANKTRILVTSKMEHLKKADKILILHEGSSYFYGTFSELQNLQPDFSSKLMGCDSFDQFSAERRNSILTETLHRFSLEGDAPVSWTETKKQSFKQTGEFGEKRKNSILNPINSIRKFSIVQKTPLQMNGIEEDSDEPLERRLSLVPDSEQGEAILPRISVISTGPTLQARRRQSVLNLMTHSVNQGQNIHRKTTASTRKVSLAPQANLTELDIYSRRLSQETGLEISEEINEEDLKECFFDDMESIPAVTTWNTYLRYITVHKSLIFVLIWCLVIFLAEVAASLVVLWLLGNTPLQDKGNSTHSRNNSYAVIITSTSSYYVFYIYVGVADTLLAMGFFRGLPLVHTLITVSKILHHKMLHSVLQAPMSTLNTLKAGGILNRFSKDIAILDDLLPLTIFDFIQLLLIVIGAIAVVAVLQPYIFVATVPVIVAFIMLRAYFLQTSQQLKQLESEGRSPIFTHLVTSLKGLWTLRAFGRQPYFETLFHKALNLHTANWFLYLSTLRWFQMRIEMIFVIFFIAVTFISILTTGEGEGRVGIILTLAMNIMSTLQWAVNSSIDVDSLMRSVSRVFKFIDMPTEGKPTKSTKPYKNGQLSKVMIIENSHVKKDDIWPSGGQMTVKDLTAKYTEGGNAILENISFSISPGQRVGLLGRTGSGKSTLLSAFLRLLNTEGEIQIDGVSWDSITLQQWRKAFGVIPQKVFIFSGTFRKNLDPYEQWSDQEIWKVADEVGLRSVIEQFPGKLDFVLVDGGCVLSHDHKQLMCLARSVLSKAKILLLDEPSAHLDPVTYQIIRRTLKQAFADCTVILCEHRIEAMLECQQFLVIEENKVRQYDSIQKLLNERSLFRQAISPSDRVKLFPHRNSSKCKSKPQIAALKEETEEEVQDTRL
T1 sequence (P13569 whole entry R334W): as the sequence (P13569 whole entry G1349D) above, with R334W, D1349G counted along it
T2 sequence (P13569 whole entry G551D): as the sequence (P13569 whole entry G1349D) above, with G551D, D1349G counted along it
T3 sequence (P13569 whole entry S945L): as the sequence (P13569 whole entry G1349D) above, with S945L, D1349G counted along it

## CCOC(=O)c1ccc(-n2cc(C(O)c3ccc(Br)cc3)nn2)cc1 (stereo not drawn) [LSO-150]
p.Arg334Trp-CFTR; VX-770 3 μM + LSO-150 3 μM or LSO-153 5 μM, vs single potentiator
  Isceq, co-administration with VX-770: further response
p.Arg334Trp-CFTR; acute, LSO-150 3 μM, LSO-153 5 μM, VX-770 3 μM, vs DMSO
  Isceq (equivalent short-circuit current), single potentiator: increase in Isceq
p.Gly551Asp-CFTR
  CFTR activity (fluorescence quenching rate), single compound: increased CFTR activity
p.Ser945Leu-CFTR
  CFTR activity (fluorescence quenching rate), single compound: increased CFTR activity
p.Gly1349Asp-CFTR; LSO-24 5 μM or LSO-150 3 μM added to VX-770 1 μM or ABBV-3067 10 μM
  Fluorescence quenching rate, effect in combination(s) with VX-770 or ABBV-3067: no effect
p.Gly1349Asp-CFTR; LSO-24 5 μM, LSO-150 3 μM, VX-770 1 μM, ABBV-3067 10 μM
  Fluorescence quenching rate, single compound: no effect
